# Tested on: MV-4-11 cells
# Assay: Gene expression microarray analysis (Affymetrix PrimeView) and GSEA
# Assay type: cell-based, human
# Parameters: RFU PODN (11730768_x_at) / Fold change /veh PODN (11730768_x_at) / RFU LINC00158 (11744669_a_at) / Fold change /veh LINC00158 (11744669_a_at) / RFU DUSP10 (11751237_a_at) / Fold change /veh DUSP10 (11751237_a_at) / RFU ID3 (11757404_x_at) / Fold change /veh ID3 (11757404_x_at) / RFU PLEKHG5 (11737974_s_at) / Fold change /veh PLEKHG5 (11737974_s_at) / RFU LRRC4B (11730491_at) / Fold change /veh LRRC4B (11730491_at) / RFU GIMAP4 (11747438_a_at) / Fold change /veh GIMAP4 (11747438_a_at) / RFU KRT8 (11758183_x_at) / Fold change /veh KRT8 (11758183_x_at) / RFU CNN1 (11734310_a_at) / Fold change /veh CNN1 (11734310_a_at) / RFU VPS37D (11726825_at) / Fold change /veh VPS37D (11726825_at) / RFU C10orf10 (11716522_x_at) / Fold change /veh C10orf10 (11716522_x_at) / RFU KIR2DL2 /// KIR2DL4 /// KIR2DL5A /// KIR2DL5B /// KIR2DS1 /// KIR2DS2 /// KIR2DS3 /// KIR2DS4 /// KIR3DL3 /// KIR3DL3 /// KIR3DS1 (11738374_at) / Fold change /veh KIR2DL2 /// KIR2DL4 /// KIR2DL5A /// KIR2DL5B /// KIR2DS1 /// KIR2DS2 /// KIR2DS3 /// KIR2DS4 /// KIR3DL3 /// KIR3DL3 /// KIR3DS1 (11738374_at) / RFU C1QL1 (11718748_at) / Fold change /veh C1QL1 (11718748_at) / RFU TMPRSS4 (11747572_a_at) / Fold change /veh TMPRSS4 (11747572_a_at) / RFU HAMP (11756126_x_at) / Fold change /veh HAMP (11756126_x_at) / RFU RNFT2 (11725882_a_at) / Fold change /veh RNFT2 (11725882_a_at) / RFU NR4A2 (11747474_a_at) / Fold change /veh NR4A2 (11747474_a_at) / RFU ABCC12 (11746883_a_at) / Fold change /veh ABCC12 (11746883_a_at) / RFU TMEM136 (11760407_x_at) / Fold change /veh TMEM136 (11760407_x_at) / RFU CLDN22 /// WWC2 (11732394_at) / Fold change /veh CLDN22 /// WWC2 (11732394_at) / RFU HLA-DPB1 (11760878_x_at) / Fold change /veh HLA-DPB1 (11760878_x_at) / RFU SPINT1 (11716480_a_at) / Fold change /veh SPINT1 (11716480_a_at) / RFU GAP43 (11754022_s_at) / Fold change /veh GAP43 (11754022_s_at) / RFU A4GNT (11735810_at) / Fold change /veh A4GNT (11735810_at) / RFU PRB3 (11715151_x_at) / Fold change /veh PRB3 (11715151_x_at) / RFU TUBB4B (11761932_at) / Fold change /veh TUBB4B (11761932_at) / RFU CAPN14 (11732068_a_at) / Fold change /veh CAPN14 (11732068_a_at) / RFU TMCC2 (11721928_a_at) / Fold change /veh TMCC2 (11721928_a_at) / RFU IRGQ (11745062_a_at) / Fold change /veh IRGQ (11745062_a_at) / RFU FAM174B (11720279_a_at) / Fold change /veh FAM174B (11720279_a_at) / RFU TMPRSS4 (11748680_a_at) / Fold change /veh TMPRSS4 (11748680_a_at) / RFU FAM212B (11763350_a_at) / Fold change /veh FAM212B (11763350_a_at) / RFU PLEKHG5 (11743358_a_at) / Fold change /veh PLEKHG5 (11743358_a_at) / RFU ZSCAN30 (11745921_a_at) / Fold change /veh ZSCAN30 (11745921_a_at) / RFU CMKLR1 (11741424_a_at) / Fold change /veh CMKLR1 (11741424_a_at) / RFU LOC101060620 /// MAPK8IP1 (11723275_at) / Fold change /veh LOC101060620 /// MAPK8IP1 (11723275_at) / RFU SPTSSB (11747773_x_at) / Fold change /veh SPTSSB (11747773_x_at) / RFU PRSS12 (11739890_at) / Fold change /veh PRSS12 (11739890_at) / RFU BIN1 (11741810_x_at) / Fold change /veh BIN1 (11741810_x_at) / RFU WNT11 (11732464_a_at) / Fold change /veh WNT11 (11732464_a_at) / RFU C10orf10 (11716521_a_at) / Fold change /veh C10orf10 (11716521_a_at) / RFU C5orf56 (11738089_at) / Fold change /veh C5orf56 (11738089_at) / RFU CYB561 (11721691_x_at) / Fold change /veh CYB561 (11721691_x_at) / RFU ANKRD19P (11752326_a_at) / Fold change /veh ANKRD19P (11752326_a_at) / RFU OR2T12 /// OR2T33 /// OR2T8 (11738714_s_at) / Fold change /veh OR2T12 /// OR2T33 /// OR2T8 (11738714_s_at) / RFU VCAN (11748164_a_at) / Fold change /veh VCAN (11748164_a_at) / RFU JSRP1 (11732532_at) / Fold change /veh JSRP1 (11732532_at) / RFU KRTAP10-11 (11738290_x_at) / Fold change /veh KRTAP10-11 (11738290_x_at) / RFU MYO3A (11730013_a_at) / Fold change /veh MYO3A (11730013_a_at) / RFU EBF3 (11725865_a_at) / Fold change /veh EBF3 (11725865_a_at) / RFU CAMK2N1 (11719241_x_at) / Fold change /veh CAMK2N1 (11719241_x_at) / RFU C5orf56 (11738088_a_at) / Fold change /veh C5orf56 (11738088_a_at) / RFU OLFML3 (11715873_a_at) / Fold change /veh OLFML3 (11715873_a_at) / RFU LOC100653217 /// NTM (11731650_a_at) / Fold change /veh LOC100653217 /// NTM (11731650_a_at) / RFU MAPK11 (11762145_a_at) / Fold change /veh MAPK11 (11762145_a_at) / RFU FIZ1 (11724087_x_at) / Fold change /veh FIZ1 (11724087_x_at) / RFU OASL (11726364_x_at) / Fold change /veh OASL (11726364_x_at) / RFU SOX15 (11748057_x_at) / Fold change /veh SOX15 (11748057_x_at) / RFU CD79A (11719716_a_at) / Fold change /veh CD79A (11719716_a_at) / RFU HIST1H1D (11736915_at) / Fold change /veh HIST1H1D (11736915_at) / RFU CASKIN2 (11723855_a_at) / Fold change /veh CASKIN2 (11723855_a_at) / RFU LOC730098 (11760151_x_at) / Fold change /veh LOC730098 (11760151_x_at) / RFU OR4N2 (11742367_at) / Fold change /veh OR4N2 (11742367_at) / RFU PRRT2 (11749266_a_at) / Fold change /veh PRRT2 (11749266_a_at) / RFU SNX32 (11753110_a_at) / Fold change /veh SNX32 (11753110_a_at) / RFU CDHR5 (11726645_a_at) / Fold change /veh CDHR5 (11726645_a_at) / RFU RCAN1 (11760418_a_at) / Fold change /veh RCAN1 (11760418_a_at) / RFU FAM167A (11723789_a_at) / Fold change /veh FAM167A (11723789_a_at) / RFU FAM26E (11764081_at) / Fold change /veh FAM26E (11764081_at) / RFU ISYNA1 (11749810_s_at) / Fold change /veh ISYNA1 (11749810_s_at) / RFU ACY1 (11761880_at) / Fold change /veh ACY1 (11761880_at) / RFU 11764098_at / Fold change /veh 11764098_at / RFU SAMD14 (11745864_x_at) / Fold change /veh SAMD14 (11745864_x_at) / RFU NPB (11741838_a_at) / Fold change /veh NPB (11741838_a_at) / RFU TMPRSS6 (11731388_a_at) / Fold change /veh TMPRSS6 (11731388_a_at) / RFU KRTAP10-2 (11738614_at) / Fold change /veh KRTAP10-2 (11738614_at) / RFU ARHGAP8 /// PRR5-ARHGAP8 (11727945_x_at) / Fold change /veh ARHGAP8 /// PRR5-ARHGAP8 (11727945_x_at) / RFU KRTAP5-7 /// NADSYN1 (11734609_at) / Fold change /veh KRTAP5-7 /// NADSYN1 (11734609_at) / RFU RASL12 (11751679_a_at) / Fold change /veh RASL12 (11751679_a_at) / RFU CDKN2B (11736163_a_at) / Fold change /veh CDKN2B (11736163_a_at) / RFU PRF1 (11729649_at) / Fold change /veh PRF1 (11729649_at) / RFU, ZNF638 /// ZNF638-IT1 / Fold change vs veh, ZNF638 /// ZNF638-IT1 / RFU, PANK3 / Fold change vs veh, PANK3 / RFU, SH3YL1 / Fold change vs veh, SH3YL1 / RFU, ZEB2 / Fold change vs veh, ZEB2 / RFU, NRIP1 / Fold change vs veh, NRIP1 / RFU, PTTG1IP / Fold change vs veh, PTTG1IP / RFU, CAPN2 / Fold change vs veh, CAPN2 / RFU, MED14 / Fold change vs veh, MED14 / RFU, SNORA58 / Fold change vs veh, SNORA58 / RFU, C1orf63 / Fold change vs veh, C1orf63 / RFU, LRRFIP1 / Fold change vs veh, LRRFIP1 / RFU, NDUFAF7 / Fold change vs veh, NDUFAF7 / RFU, SLC12A2 / Fold change vs veh, SLC12A2 / RFU, IBTK / Fold change vs veh, IBTK / RFU, ESF1 / Fold change vs veh, ESF1 / Fold change vs veh, TMEM50B / RFU, TAOK1 / Fold change vs veh, TAOK1 / RFU, ACBD3 / Fold change vs veh, ACBD3 / RFU, TMA16 / Fold change vs veh, TMA16 / RFU, RWDD3 / Fold change vs veh, RWDD3 / RFU, BCAT1 / Fold change vs veh, BCAT1 / RFU, EDEM3 / Fold change vs veh, EDEM3 / RFU, TMEM33 / Fold change vs veh, TMEM33 / RFU, WDR75 / Fold change vs veh, WDR75 / RFU, AHCTF1 / Fold change vs veh, AHCTF1 / RFU, TFRC / Fold change vs veh, TFRC / RFU, ZDHHC17 / Fold change vs veh, ZDHHC17 / RFU, NOM1 / Fold change vs veh, NOM1 / RFU, ARL8B / Fold change vs veh, ARL8B / RFU, ZBTB11 / Fold change vs veh, ZBTB11 / RFU, TAMM41 / Fold change vs veh, TAMM41 / RFU, KIAA1704 /// LOC100996395 / Fold change vs veh, KIAA1704 /// LOC100996395 / RFU, ING1 / Fold change vs veh, ING1 / RFU, TRMT61B / Fold change vs veh, TRMT61B / RFU, FUBP3 / Fold change vs veh, FUBP3 / RFU, TP53 / Fold change vs veh, TP53 / RFU, TNKS2 / Fold change vs veh, TNKS2 / RFU, ZFP14 / Fold change vs veh, ZFP14 / RFU, ACTR2 / Fold change vs veh, ACTR2 / RFU, PPP3R1 / Fold change vs veh, PPP3R1 / RFU, PIK3R1 / Fold change vs veh, PIK3R1 / RFU, HNRNPA1 / Fold change vs veh, HNRNPA1 / RFU, RNF170 / Fold change vs veh, RNF170 / RFU, ZNF28 / Fold change vs veh, ZNF28 / RFU, RNGTT / Fold change vs veh, RNGTT / RFU, OGT / Fold change vs veh, OGT / RFU, BRD1 / Fold change vs veh, BRD1 / RFU, MARS / Fold change vs veh, MARS / RFU, ZNF655 / Fold change vs veh, ZNF655 / RFU, FAHD1 / Fold change vs veh, FAHD1 / RFU, BDP1 / Fold change vs veh, BDP1 / RFU, LRRCC1 / Fold change vs veh, LRRCC1 / RFU, ARID1A / Fold change vs veh, ARID1A / RFU, ZNF146 / Fold change vs veh, ZNF146 / RFU, ZNF330 / Fold change vs veh, ZNF330 / RFU, GPN3 / Fold change vs veh, GPN3 / RFU, C9orf123 / Fold change vs veh, C9orf123 / RFU, N4BP2L2 / Fold change vs veh, N4BP2L2 / RFU, ARFIP1 / Fold change vs veh, ARFIP1 / RFU, FAM179B / Fold change vs veh, FAM179B / RFU, BCL10 / Fold change vs veh, BCL10 / RFU, UHRF1BP1L / Fold change vs veh, UHRF1BP1L / RFU, BET1 / Fold change vs veh, BET1 / RFU, CNOT2 / Fold change vs veh, CNOT2 / RFU, ZNF268 / Fold change vs veh, ZNF268 / Fold change vs veh, ZNF507 / RFU, DGCR2 / Fold change vs veh, DGCR2 / RFU, WDSUB1 / Fold change vs veh, WDSUB1 / Fold change vs veh, HSP90B1 /// MIR3652 / RFU, ADSS / Fold change vs veh, ADSS / RFU, GK / Fold change vs veh, GK / RFU, ZNF148 / Fold change vs veh, ZNF148 / RFU, TAF9 / Fold change vs veh, TAF9 / RFU, SLC1A5 / Fold change vs veh, SLC1A5 / RFU, SLMO2 / Fold change vs veh, SLMO2 / RFU, ABCC4 / Fold change vs veh, ABCC4 / RFU, LOC101060439 /// RAP1B / Fold change vs veh, LOC101060439 /// RAP1B / RFU, RFX7 / Fold change vs veh, RFX7 / RFU, GTPBP10 / Fold change vs veh, GTPBP10 / RFU, CNEP1R1 / Fold change vs veh, CNEP1R1 / RFU, BIVM-ERCC5 /// ERCC5 / Fold change vs veh, BIVM-ERCC5 /// ERCC5 / RFU, ILF3 / Fold change vs veh, ILF3 / RFU 11762660_at / Fold change /veh 11762660_at / RFU VCAN (11757783_s_at) / Fold change /veh VCAN (11757783_s_at) / RFU DDX43 (11728927_at) / Fold change /veh DDX43 (11728927_at) / RFU KRT8 (11758188_x_at) / Fold change /veh KRT8 (11758188_x_at) / RFU NKD1 (11759106_at) / Fold change /veh NKD1 (11759106_at) / RFU SRD5A1 (11742802_a_at) / Fold change /veh SRD5A1 (11742802_a_at) / RFU TPSAB1 /// TPSB2 (11721975_s_at) / Fold change /veh TPSAB1 /// TPSB2 (11721975_s_at) / RFU GSTM3 (11746129_a_at) / Fold change /veh GSTM3 (11746129_a_at) / RFU IL23R (11737362_x_at) / Fold change /veh IL23R (11737362_x_at) / RFU TMEM51 (11727254_a_at) / Fold change /veh TMEM51 (11727254_a_at) / RFU PIWIL2 (11732686_x_at) / Fold change /veh PIWIL2 (11732686_x_at) / RFU ORM1 (11744905_x_at) / Fold change /veh ORM1 (11744905_x_at) / RFU CCDC152 (11743942_at) / Fold change /veh CCDC152 (11743942_at) / RFU ECM1 (11717891_a_at) / Fold change /veh ECM1 (11717891_a_at) / RFU IL23R (11748794_a_at) / Fold change /veh IL23R (11748794_a_at) / RFU TNFAIP8L3 (11732012_x_at) / Fold change /veh TNFAIP8L3 (11732012_x_at) / RFU MBOAT4 (11741988_at) / Fold change /veh MBOAT4 (11741988_at) / RFU 11764193_at / Fold change /veh 11764193_at / RFU TMEM53 (11763286_at) / Fold change /veh TMEM53 (11763286_at) / RFU MAGEB2 (11727129_at) / Fold change /veh MAGEB2 (11727129_at) / RFU TMEM200A (11744735_a_at) / Fold change /veh TMEM200A (11744735_a_at) / RFU CCDC152 (11751479_a_at) / Fold change /veh CCDC152 (11751479_a_at) / RFU FAM211A (11726209_a_at) / Fold change /veh FAM211A (11726209_a_at) / RFU RGS16 (11746705_a_at) / Fold change /veh RGS16 (11746705_a_at) / RFU VCAN (11755009_s_at) / Fold change /veh VCAN (11755009_s_at) / RFU RHOB (11743442_s_at) / Fold change /veh RHOB (11743442_s_at) / RFU RGS16 (11720943_a_at) / Fold change /veh RGS16 (11720943_a_at) / RFU RGS16 (11720944_at) / Fold change /veh RGS16 (11720944_at) / RFU, VPS4B / Fold change vs veh, VPS4B / RFU, CREB1 / Fold change vs veh, CREB1 / RFU, DNAJC13 / Fold change vs veh, DNAJC13 / RFU, GNAQ / Fold change vs veh, GNAQ / RFU, CDK5R1 / Fold change vs veh, CDK5R1 / RFU, ZRANB3 / Fold change vs veh, ZRANB3 / RFU, CUL4A / Fold change vs veh, CUL4A / RFU, CCNY / Fold change vs veh, CCNY / RFU, UFL1 / Fold change vs veh, UFL1 / RFU, COG3 / Fold change vs veh, COG3 / RFU, DIAPH2 / Fold change vs veh, DIAPH2 / RFU, SKA2 / Fold change vs veh, SKA2 / RFU, AFF3 / Fold change vs veh, AFF3 / RFU, LMF1 / Fold change vs veh, LMF1 / RFU, IPO11 / Fold change vs veh, IPO11 / RFU, DFFB / Fold change vs veh, DFFB / RFU, FOXP1 / Fold change vs veh, FOXP1 / RFU, CARD8 / Fold change vs veh, CARD8 / RFU, STRN3 / Fold change vs veh, STRN3 / RFU, ADK / Fold change vs veh, ADK / RFU, RASSF2 / Fold change vs veh, RASSF2 / RFU, WIPF1 / Fold change vs veh, WIPF1 / RFU, LARP1B / Fold change vs veh, LARP1B / RFU, RASA1 / Fold change vs veh, RASA1 / RFU, RB1 / Fold change vs veh, RB1 / RFU, PPFIA1 / Fold change vs veh, PPFIA1 / RFU, MAT2A / Fold change vs veh, MAT2A / RFU, CCT5 / Fold change vs veh, CCT5 / RFU, WDR92 / Fold change vs veh, WDR92 / RFU, CUX1 / Fold change vs veh, CUX1 / RFU, TTC7A / Fold change vs veh, TTC7A / RFU, TMEM135 / Fold change vs veh, TMEM135 / RFU, DEPTOR / Fold change vs veh, DEPTOR / RFU, CPM / Fold change vs veh, CPM / RFU, DNAJB6 / Fold change vs veh, DNAJB6 / RFU, CACNA2D3 / Fold change vs veh, CACNA2D3 / RFU, DTX4 / Fold change vs veh, DTX4 / RFU, TFCP2 / Fold change vs veh, TFCP2 / RFU, GMCL1 /// GMCL1P1 / Fold change vs veh, GMCL1 /// GMCL1P1 / RFU, AEBP2 / Fold change vs veh, AEBP2 / RFU, SNHG1 /// SNORD22 /// SNORD25 /// SNORD26 /// SNORD27 /// SNORD28 /// SNORD29 /// SNORD31 / Fold change vs veh, SNHG1 /// SNORD22 /// SNORD25 /// SNORD26 /// SNORD27 /// SNORD28 /// SNORD29 /// SNORD31 / Fold change (Aza/veh), C12orf56 (ProbeSet 11735607_a_at) / Fold change (ACY-1035/veh), C12orf56 (ProbeSet 11735607_a_at) / Fold change (Aza/veh), FGFR1OP (ProbeSet 11751329_s_at) / Fold change (ACY-1035/veh), FGFR1OP (ProbeSet 11751329_s_at) / Fold change (Aza/veh), VPS36 (ProbeSet 11739960_a_at) / Fold change (ACY-1035/veh), VPS36 (ProbeSet 11739960_a_at) / RFU SYPL1 (11715823_x_at) / Fold change /veh SYPL1 (11715823_x_at) / RFU IGFBP7 (11715501_s_at) / Fold change /veh IGFBP7 (11715501_s_at) / RFU REEP3 (11722064_at) / Fold change /veh REEP3 (11722064_at) / RFU IGLL1 (11728026_x_at) / Fold change /veh IGLL1 (11728026_x_at): dose or concentration left out as unconfirmed
# Conditions: MV-4-11 cells, 48 hours
compound,measurement,value
Nc1ncn([C@@H]2O[C@H](CO)[C@@H](O)[C@H]2O)c(=O)n1 [azacitidine],Fold change /veh CAPN14 (11732068_a_at),1.07

# Source: article PMC5218480 (PLoS ONE, 2017)
